One data set has as its system Wild type yeast. Briefly: Lithium inhibition of yeast growth (OD600), wild type. Conditions: Saccharomyces cerevisiae. Format: cell-based, S. cerevisiae. As for the experimental part:
FIG. 7 is a graph showing met3Δ and met14Δ strains are lithium resistant. Wild type, met3Δ, and met14Δ yeast were resuspended at 5×10^4/ml in CM/ura^− containing 2% dextrose and 1.25 μg/ml methionine. Growth at various concentrations of LiCl was measured after a 24 hr incubation at 30° C. The growth is plotted relative to growth in media lacking lithium.
FIG. 10 is a graph showing methionine supplementation induces lithium resistance. Wild type yeast were inoculated at 5×10^4 cells per ml into synthetic media with or without methionine containing the noted concentration of LiCl. Growth was assayed by spectrophotometry following 48 hrs of growth at 30° C.
Wild type yeast were grown in CM/ura^− containing 2% galactose to mid-log phase. The cultures were washed and resuspended at 5×10^5 cells/ml in CM/ura^−/met^− containing the noted lithium and chlorate concentrations. Following growth for 24 hr at 30° C., the cultures were resuspended, and growth was measured by determining the absorbance at λ=600 nm.
Since methionine effects transcriptional down regulation of the MET3 and MET14 gene products in wild type yeast, the relative lithium sensitivities of the met3Δ and met14Δ strains were assayed in growth media containing reduced methionine (1.25 μg/ml). The use of limited methionine allowed for the comparison of the relative sensitivity to lithium of yeast expressing (wild type) or lacking (met3Δ and met14Δ) PAPS synthetase activities.
The yeast system was used to determine if chlorate could be used to effect a relevant decrease in the accumulation of PAP in the presence of lithium. […] The decrease in PAP accumulation was physiologically relevant since chlorate produced a protective effect in the presence of lithium. […] When 25 mM NaClO3 is included in the culture medium, the growth inhibition is abated, with the IC50 increasing to approximately 80 mM LiCl (FIG. 11)

For data set [1], the system named is intracellular PAP in wild type yeast. Briefly: Intracellular PAP concentration by GST-PST binding assay, wild type yeast. In kind it is cell-based, S. cerevisiae. Here is the method:
(§1) Yeast were grown in CM/ura^− containing 2% galactose to mid-log phase. The cultures were washed extensively and resuspended in the CM/ura^−/met^− media with the noted inclusions. PAP was measured using the ligand binding assay described in Experimental Procedures. Intracellular PAP concentrations were normalized to the amount of soluble protein extracted from the cultures.
For the assay of intracellular PAP concentrations, appropriate yeast strains were grown in CM/ura^− to mid-log phase (OD600=1.0). The cells were centrifuged and washed extensively in sterile water. The cells were resuspended in CM/ura^−/met^− containing methionine (20 μg/ml), lithium, or chlorate as appropriate. The cultures were incubated with shaking at 30° C. At various time points, 2 ml of culture was removed and centrifuged. The cells were washed with 1 ml of water. 250 μl was centrifuged and resuspended in 200 μl K-lysis buffer. 200 μl of glass beads were added, and the cells were disrupted by vigorous bead beating. The amount of soluble protein in this extract was determined using a Bradford dye-binding assay (BioRad, Hercules, Calif., United States of America) with bovine serum albumin as a standard. The remaining 750 μl of washed cells was spun down and resuspended in 250 μl of 2 N HClO4. This was incubated at 4° C. for 20 min, when 250 μl of 1.8 N KOH, 0.4 N KHCO3 were added to neutralize and precipitate the HClO4. The extract was centrifuged at 4° C. to remove the debris, and the supernatant was lyophilized using a rotary evaporator. The dried extracts were frozen at −80° C. for no more than one week prior to use. Extracts were reconstituted in 100 μL of 200 mM HEPES, pH 7.5 and again centrifuged to remove debris. 5′ [^32P] 3′, 5′ PAP was created as described (Spiegelberg, 1999). The GST-PST assay was performed by mixing 10 μL of standard PAP, treated as above, or 10 μL of sample diluted approximately 1:1000 in K-lysis buffer, with 10 μL of radiolabeled PAP (approximately 10,000 CPM). Eighty microliters of a reaction mix containing 100 mM HEPES, pH 7.0, 5 mM DTT, 0.2 mg/ml BSA, and 1 μg of GST-PST were added to start the binding reaction. The reactions were allowed to equilibrate for at least one hour at room temperature. Following incubation, 20 μl of a 50:50 slurry of glutathione sepharose in K-lysis buffer was added. The tubes were incubated with gentle mixing for 10 min at room temperature. The protein with bound PAP was pulled down by centrifugation for 2 min at room temperature. 80 μl of the supernatant, containing free PAP, was removed to a scintillation vial and 200 μl of K-lysis buffer was added to wash the resin. The tubes were centrifuged again and the 200 μl wash was transferred to the original scintillation vials. Radioactivity was determined by adding 5 ml of […] ECONO2™ scintillation fluid (Fisher Scientific, Hampton, N.H., United States of America) and counted in a liquid scintillation counter. The counts were converted to percent isotope bound, and a standard curve was prepared by plotting percent bound vs. the logarithm of the PAP concentration. […]
The GST-PST binding assay was used to determine relative intracellular PAP concentrations in yeast strains grown under various conditions. The PAP concentration determined in the binding assay was normalized to the total soluble protein in parallel extracts, and background was eliminated by reporting only the signal that was sensitive to in vitro degradation by purified recombinant Hal2p. […]

The test system of data set [2] is intracellular PAP in met14Δ cells. Format: cell-based, S. cerevisiae. Here is the method: as §1
(§2) For the assay of intracellular PAP concentrations, appropriate yeast strains were grown in CM/ura^− to mid-log phase (OD600=1.0). The cells were centrifuged and washed extensively in sterile water. The cells were resuspended in CM/ura^−/met^− containing methionine (20 μg/ml), lithium, or chlorate as appropriate. The cultures were incubated with shaking at 30° C. At various time points, 2 ml of culture was removed and centrifuged. The cells were washed with 1 ml of water. 250 μl was centrifuged and resuspended in 200 μl K-lysis buffer. 200 μl of glass beads were added, and the cells were disrupted by vigorous bead beating. The amount of soluble protein in this extract was determined using a Bradford dye-binding assay (BioRad, Hercules, Calif., United States of America) with bovine serum albumin as a standard. The remaining 750 μl of washed cells was spun down and resuspended in 250 μl of 2 N HClO4. This was incubated at 4° C. for 20 min, when 250 μl of 1.8 N KOH, 0.4 N KHCO3 were added to neutralize and precipitate the HClO4. The extract was centrifuged at 4° C. to remove the debris, and the supernatant was lyophilized using a rotary evaporator. The dried extracts were frozen at −80° C. for no more than one week prior to use. Extracts were reconstituted in 100 μL of 200 mM HEPES, pH 7.5 and again centrifuged to remove debris. 5′ [^32P] 3′, 5′ PAP was created as described (Spiegelberg, 1999). The GST-PST assay was performed by mixing 10 μL of standard PAP, treated as above, or 10 μL of sample diluted approximately 1:1000 in K-lysis buffer, with 10 μL of radiolabeled PAP (approximately 10,000 CPM). Eighty microliters of a reaction mix containing 100 mM HEPES, pH 7.0, 5 mM DTT, 0.2 mg/ml BSA, and 1 μg of GST-PST were added to start the binding reaction. The reactions were allowed to equilibrate for at least one hour at room temperature. Following incubation, 20 μl of a 50:50 slurry of glutathione sepharose in K-lysis buffer was added. The tubes were incubated with gentle mixing for 10 min at room temperature. The protein with bound PAP was pulled down by centrifugation for 2 min at room temperature. 80 μl of the supernatant, containing free PAP, was removed to a scintillation vial and 200 μl of K-lysis buffer was added to wash the resin. The tubes were centrifuged again and the 200 μl wash was transferred to the original scintillation vials. Radioactivity was determined by adding 5 ml of […] ECONO2™ scintillation fluid (Fisher Scientific, Hampton, N.H., United States of America) and counted in a liquid scintillation counter. The counts were converted to percent isotope bound, and a standard curve was prepared by plotting percent bound vs. the logarithm of the PAP concentration. This standard curve was used to back-calculate the PAP concentration in the unknown samples.
(§3) The GST-PST binding assay was used to determine relative intracellular PAP concentrations in yeast strains grown under various conditions. The PAP concentration determined in the binding assay was normalized to the total soluble protein in parallel extracts, and background was eliminated by reporting only the signal that was sensitive to in vitro degradation by purified recombinant Hal2p. The assay was characterized further by analyzing the intracellular PAP concentration of wild type yeast grown in the presence of lithium.

For data set [3], the system named is intracellular PAP in met3Δ cells. In kind it is cell-based, S. cerevisiae. Here is the method: as §1, §2, §3
For the next data set, the system named is patients. Conditions: cited from earlier work.

Molecules are shown by their SMILES. Several values for one entry are separate records, joined by “and”; a condition that tells them apart may be missing. Identical values can stand only once. Like-named read-outs stand apart in the source and are kept apart here.

Turning to `[Li]` [lithium], the IC50 was ~40 mM with Wild type yeast (CM/ura− 2% dextrose, 1.25 μg/ml methionine, 24 hr at 30° C., growth relative to media lacking lithium, read-out: IC50 of lithium for growth inhibition); ~80 mM in the data set with Wild type yeast (CM/ura−/met−, 24 hr at 30° C., 25 mM NaClO3 in culture medium, read-out: IC50 of LiCl for growth inhibition with chlorate); ~40 mM in the data set with Wild type yeast (synthetic media without methionine, 48 hrs at 30° C., read-out: IC50 for lithium in met− media). Further, the “Fold increase of PAP concentration” value in data set [1] was “at least 85.8 fold”; in data set [2] (met14Δ expressing hPAPSS2, 100 mM lithium vs absence of lithium) it was ≥ 65.4 fold; in data set [3] (met3Δ expressing hPAPSS2, 100 mM lithium vs absence of lithium), ≥ 72.4 fold. Also, the “Intracellular PAP concentration” value was 42.9 nmol/mg in data set [1] (wild type, 100 mM LiCl, 8 hr, absence of methionine, normalized to soluble protein); ~32.8 nmol/mg and 32.7 nmol/mg in data set [2] (met14Δ expressing hPAPSS2, 100 mM lithium, eight hours); “less than 0.5 nmol PAP/mg soluble protein” in data set [2] (met14Δ with empty vector, independent of methionine and lithium concentration, data not shown); “less than 0.5 nmol PAP/mg soluble protein” in data set [3] (met3Δ with empty vector, independent of methionine and lithium concentration, data not shown). In addition, the “Occurrence of acquired nephrogenic diabetes insipidus (NDI)” value with patients (patients taking the drug) is 20-50%. The “Patients reporting clinically significant polyuria” value in the data set on patients (patients undergoing lithium therapy) was “Up to 20%”.

The term IC50 denotes the concentration that inhibits the measured activity by half.

Source of the values: patent publication US20050037450A1, “Novel targets for lithium therapy” (Duke University, priority 2002, published 2005).
